This assay deals with T1, IRE1 (IRE1α, Inositol requiring enzyme 1α) (Homo sapiens, UniProt O75460).
T1 construct: gene ERN1; recombinant IRE1 (aa 465–977, His & GST Tag); cytosolic domain
In words: in vitro fluorescence RNase assay, cleavage of XBP1 mini-probe (Cy5). It is filed as biochemical.

Read-outs that look alike come from different tables or passages of the source.

T1 sequence (O75460 465-977): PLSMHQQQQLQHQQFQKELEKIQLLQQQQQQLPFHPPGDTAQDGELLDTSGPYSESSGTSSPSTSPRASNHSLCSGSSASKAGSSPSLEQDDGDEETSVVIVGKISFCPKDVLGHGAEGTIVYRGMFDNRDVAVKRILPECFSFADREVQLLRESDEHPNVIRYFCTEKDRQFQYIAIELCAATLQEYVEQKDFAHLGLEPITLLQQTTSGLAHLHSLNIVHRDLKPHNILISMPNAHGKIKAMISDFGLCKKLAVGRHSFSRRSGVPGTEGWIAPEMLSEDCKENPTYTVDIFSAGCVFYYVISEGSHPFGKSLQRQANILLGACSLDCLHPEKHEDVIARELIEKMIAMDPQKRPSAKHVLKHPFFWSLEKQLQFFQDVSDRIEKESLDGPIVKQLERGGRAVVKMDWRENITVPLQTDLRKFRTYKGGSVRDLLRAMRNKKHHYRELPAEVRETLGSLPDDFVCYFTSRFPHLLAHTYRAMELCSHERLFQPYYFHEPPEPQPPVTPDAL

For the molecule `C[C@@H]1O[C@@H](Oc2c(-c3ccc(O)c(O)c3)oc3cc(O)cc(O)c3c2=O)[C@H](O)[C@H](O)[C@H]1O` [Qi, quercitrin], half-maximal inhibition (IC50) required 0.23 ± 0.1 µM.
The molecule `C[C@@H]1O[C@@H](OC[C@H]2O[C@@H](Oc3c(-c4ccc(O)c(O)c4)oc4cc(O)cc(O)c4c3=O)[C@H](O)[C@@H](O)[C@@H]2O)[C@H](O)[C@H](O)[C@H]1O` [rutin] registered an IC50 of 0.53 ± 0.3 µM.
Consider `NC[C@@H]1O[C@H](O[C@H]2[C@@H](O)[C@H](O[C@@H]3[C@@H](O)[C@H](N)C[C@H](N)[C@H]3O[C@H]3O[C@H](CN)[C@@H](O)[C@H](O)[C@H]3N)O[C@@H]2CO)[C@H](N)[C@@H](O)[C@@H]1O` [neomycin], for which the IC50 (read-out: IC50) came out at 0.33 ± 0.3 µM.
For the molecule `Nc1nc2[nH]cc(CCc3ccc(C(=O)N[C@@H](CCC(=O)O)C(=O)O)cc3)c2c(=O)[nH]1` [PMT, pemetrexed], half-maximal inhibition (IC50) was put at 0.26 ± 0.2 µM.

For the origin of these results see article PMC9010685, “Sensor dimer disruption as a new mode of action to block the IRE1-mediated unfolded protein response” (Computational and Structural Biotechnology Journal, 2022).
